What is called logP is a log measure of how a compound divides between an organic and an aqueous phase. High values mean higher lipophilicity, low ones lower lipophilicity. Usually chromatographic logP stands for lipophilicity estimated from chromatographic retention. Low values mean lower lipophilicity, high ones higher lipophilicity.

These results are taken from patent publication US10683311B2 (priority 2015, dated 2020).

One data set can be described thus: log P by HPLC on reversed-phase column (C18), EEC Directive 79/831 Annex V.A8. The note with it: Method A: 40° C., 0.1% aqueous formic acid and acetonitrile. The format is physicochemical. As to the method:
In table 1, the log P values were determined in accordance with EEC Directive 79/831 Annex V.A8 by HPLC (High Performance Liquid Chromatography) on a reversed-phase column (C18), using the methods described below:
Method A: temperature: 40° C.; mobile phases: 0.1% aqueous formic acid and acetonitrile; linear gradient from 10% acetonitrile to 95% acetonitrile;
Method B: temperature: 40° C.; mobile phases: 0.001 molar ammonium acetate solution in water and acetonitrile; linear gradient from 10% acetonitrile to 95% acetonitrile.
Calibration was carried out using unbranched alkan-2-ones (comprising 3 to 16 carbon atoms) with known log P values (determination of the log P values by the retention times using linear interpolation between two successive alkanones). lambda-max-values were determined using UV-spectra from 200 nm to 400 nm and the peak values of the chromatographic signals.
The compound `C[Si]1(c2ccccc2)c2c(F)cccc2Oc2c(Cl)nc3ccccc3c21` (centres unmarked) [6-chloro-11-fluoro-12-methyl-12-phenyl-12H-[1,4]benz-oxasilino[2,3-c]quinoline] yielded a logP of 5.94.

In turn, `C[Si](C)(O)c1ccccc1Oc1cnc2ccccc2c1` [I.002] registered a logP of 2.82.

Consider `C[Si](C)(O)c1c(F)cccc1Oc1cnc2ccccc2c1` [I.003], for which the logP was 2.90.

`CC[Si](C)(C)c1c(F)cccc1Oc1cnc2ccccc2c1` [I.005] yielded a logP of 5.47.

Take `C=C[Si](C)(C)c1c(F)cccc1Oc1cnc2ccccc2c1` [I.006]: the logP is listed as 5.24. Compound `C[Si](C)(CCl)c1c(F)cccc1Oc1cnc2ccccc2c1` [I.007] yielded a logP of 5.00. As to `C[Si](C)(C)c1ccccc1Nc1cnc2ccccc2c1` [I.011], the log partition coefficient (logP) is reported as 3.46. `C[Si](C)(C)c1ccccc1Cc1cnc2ccccc2c1` [I.012] registered a logP of 4.06. In turn, `C[Si](C)(c1ccccc1)c1ccccc1Cc1cnc2ccccc2c1` [I.013] showed a logP of 4.20. Same read-out and setting: next, `C[Si](C)(c1cccs1)c1ccccc1Cc1cnc2ccccc2c1` [I.015]: 4.04. On the same count and under the same terms, next, `C[Si](C)(c1ccc(Oc2ccccc2)cc1)c1ccccc1Cc1cnc2ccccc2c1` [I.016]: 5.62. The same measure, in the same setting: the result for `C[Si](C)(C)c1c(F)cccc1C(=O)c1cnc2ccccc2c1` [I.017] reads 4.49; that for `C[Si](C)(O)c1cc(F)ccc1Oc1cnc2c(Cl)cccc2c1` [I.018], 3.50. The compound `C[Si](C)(C)c1ccccc1Oc1cnc2c(F)c(F)ccc2c1` [I.020] returned a logP of 5.39. Still for that read-out and setting: the result for `C[Si](C)(C)c1c(F)cccc1Oc1cnc2c(F)c(F)ccc2c1` [I.021] reads 5.32; that for `C[Si](C)(O)c1c(F)cccc1Oc1cnc2c(F)c(F)ccc2c1` [I.022], 2.35. Turning to `C[Si](C)(O)c1ccccc1Oc1cnc2c(F)c(F)ccc2c1` [I.023], the logP was found to be 3.27. The same measure, in the same setting: next, `Cc1nc2c(F)c(F)ccc2cc1Oc1cccc(F)c1[Si](C)(C)O` [I.025]: 3.55; `Cc1nc2c(F)c(F)ccc2cc1Oc1cccc(F)c1[Si](C)(C)c1ccccc1` [I.028]: 6.01; `Cc1nc2c(F)c(F)ccc2cc1Oc1cc(N)ccc1[Si](C)(C)C` [I.029]: 4.59. Still for that read-out and setting: next, `Cc1nc2c(F)c(F)ccc2cc1Oc1cccc(F)c1[Si](C)(C)c1cccs1` [I.030]: 5.65; `Cc1nc2c(F)c(F)ccc2cc1Oc1cc([N+](=O)[O-])ccc1[Si](C)(C)C` [I.031]: 5.34; `COc1cccc(Oc2cc3ccc(F)c(F)c3nc2C)c1[Si](C)(C)O` [I.033]: 3.69.

Compound `Cc1nc2c(F)c(F)ccc2cc1Oc1cccc(Cl)c1[Si](C)(C)O` [I.034] showed a logP of 3.83.

Compound `Cc1nc2c(F)c(F)ccc2cc1Oc1cc(F)ccc1[Si](C)(C)O` [I.035] registered a logP of 3.55. In turn, `Cc1nc2c(F)c(F)ccc2cc1Oc1cccc(OC(F)(F)F)c1[Si](C)(C)O` [I.036] registered a logP of 4.20.

`Cc1nc2c(F)c(F)ccc2cc1Oc1ccc(F)cc1[Si](C)(C)O` [I.037] came in with a lipophilicity (logP) of 3.55. Same read-out and setting: the result for `COc1cccc(Oc2cc3ccc(F)c(F)c3nc2C)c1[Si](C)(C)C` [I.038] reads 5.85. The same measure, in the same setting: next, `CC[Si](C)(C)c1c(C#N)cccc1Oc1cc2ccc(F)c(F)c2nc1C` [I.039]: 5.22; `Cc1nc2c(F)c(F)ccc2cc1Cc1ccccc1[Si](C)(C)C` [I.040]: 5.54; `CC[Si](C)(C)c1ccccc1Oc1cnc2c(c1)CCCC2` [I.041]: 3.68. Same read-out and setting: the result for `Cc1c(Oc2cccc(F)c2[Si](C)(C)C)cnc2ccccc12` [I.042] reads 5.62; that for `CC[Si](C)(C)c1c(C#N)cccc1Oc1c(C)nc2c(F)c(F)ccc2c1[Si](C)(C)CC` [I.043], 7.36. Turning to `C=Cc1nc2ccccc2cc1Oc1cccc(F)c1[Si](C)(C)C` [I.044], the logP worked out at 6.30. Same read-out and setting: the result for `C[Si](C)(C)c1c(F)cccc1Oc1cc2ccccc2nc1-c1ccccc1` [I.045] reads 6.40; that for `Cc1nc2ccccc2cc1Oc1cccc(F)c1[Si](C)(C)C` [I.046], 5.08. The compound `Cc1nc2ccccc2cc1Oc1ccccc1[Si](C)(C)O` [I.048] gave a logP of 2.16. `Cc1nc2ccccc2cc1Oc1cccc(F)c1[Si](C)(C)O` [I.049] came in with a logP of 2.41. Same read-out and setting: the result for `Cc1nc2ccccc2cc1Oc1cccc(OC(F)(F)F)c1[Si](C)(C)O` [I.050] reads 3.35; that for `Cc1nc2ccccc2cc1Oc1cccc(Cl)c1[Si](C)(C)O` [I.051], 2.80; that for `CC[Si](C)(C)c1c(F)cccc1Oc1cc2ccccc2nc1C` [I.052], 5.62. For `Cc1nc2ccccc2cc1Oc1cccc(F)c1[SiH](C)C` [I.053], the lipophilicity (logP) amounted to 4.56. Still for that read-out and setting: next, `Cc1nc2ccccc2cc1Nc1ccccc1[Si](C)(C)C` [I.054]: 2.46.

`Cc1nc2ccccc2cc1Nc1ccc(F)cc1[Si](C)(C)C` [I.055] had a lipophilicity (logP) of 2.63. This logP and that of the compound before are within 0.2 log units of each other. Turning to `CCN(c1ccccc1[Si](C)(C)C)c1cc2ccccc2nc1C` [I.056], the logP is listed as 3.16. Take `CC[Si](C)(C)c1c(F)cccc1Oc1cc2ccccc2[n+]([O-])c1C` [I.057]: the logP turned out to be 4.54. In turn, `Cc1c(Nc2ccccc2[Si](C)(C)C)cc2ccccc2[n+]1[O-]` [I.058] returned a logP of 3.62. Still for that read-out and setting: the result for `C[Si](C)(C)c1c(F)cccc1Oc1cc2ccccc2nc1O` [I.059] reads 3.85.

In turn, `CCOc1nc2ccccc2cc1Oc1cccc(F)c1[Si](C)(C)C` [I.060] had a logP of 6.79. The compound `C[Si](C)(C)c1c(F)cccc1Oc1cc2ccccc2nc1C1CC1` [I.061] registered a lipophilicity (logP) of 6.90. `C[Si](C)(C)c1c(F)cccc1Oc1cc2ccccc2nc1Cl` [I.063]: the logP is 5.90.

Regarding `CSc1nc2ccccc2cc1Oc1cccc(F)c1[Si](C)(C)C` [I.064], the logP came out at 6.79. Still for that read-out and setting: the result for `C[Si](C)(C)c1c(F)cccc1Oc1cc2ccccc2nc1C(F)F` [I.065] reads 5.45. Compound `C[Si](C)(C)c1c(F)cccc1Nc1cc2ccccc2nc1C(F)F` [I.066] returned a logP of 5.68. With `C[Si](C)(C)c1c(F)cccc1Oc1cc2ccccc2nc1-c1ccsc1` [I.067], the logP stood at 6.66.

Turning to `C[Si](C)(C)c1ccccc1Oc1cnc2ccccc2n1` [I.068], the logP was determined as 5.05. The compound `C[Si](C)(C)c1c(F)cccc1Oc1cnc2ccccc2n1` [I.069] yielded a lipophilicity (logP) of 5.22. `C[Si](C)(O)c1ccccc1Oc1cnc2ccccc2n1` [I.070] came in with a logP of 2.86. Still for that read-out and setting: next, `C[Si](C)(O)c1c(F)cccc1Oc1cnc2ccccc2n1` [I.071]: 3.01; `CC(C)(C)[Si](C)(C)c1ccccc1Oc1cnc2ccccc2n1` [I.072]: 6.30; `CC(C)C[Si](C)(C)c1ccccc1Oc1cnc2ccccc2n1` [I.073]: 6.33. `CC[Si](CC)(CC)c1ccccc1Oc1cnc2ccccc2n1` [I.074] yielded a logP of 6.43. The logP values of the last two compounds are within 0.2 log units of each other. `CC(C)[Si](C)(C)c1ccccc1Oc1cnc2ccccc2n1` [I.075] registered a logP of 5.91. `CC[Si](C)(C)c1ccccc1Oc1cnc2ccccc2n1` [I.076] came in with a logP of 5.48. For the compound `CC[Si](C)(C)c1ccccc1Oc1cnc2c(F)c(F)ccc2n1` [I.077], the logP amounted to 5.62. In turn, `C[Si](C)(C)c1c(F)cccc1Oc1cnc2c(F)c(F)ccc2n1` [I.078] showed a logP of 5.20.

`C[Si](C)(C)c1ccccc1Oc1cnc2c(F)c(F)ccc2n1` [I.079] gave a logP of 5.28. The logP values of the last two compounds are within 0.2 log units of each other. Consider `C[Si](C)(c1ccccc1Oc1cnc2c(F)c(F)ccc2n1)C1CCCCC1` [I.080], for which the logP is 6.94.

Consider `C[Si](C)(O)c1ccccc1Oc1cnc2c(F)c(F)ccc2n1` [I.081], for which the logP is on record as 3.23. `C[Si](C)(O)c1c(F)cccc1Oc1cnc2c(F)c(F)ccc2n1` [I.082] had a logP of 3.33. For the compound `C[Si](C)(F)c1c(F)cccc1Oc1cnc2c(F)c(F)ccc2n1` [I.083], the logP amounted to 5.01. Turning to `C[Si](C)(C)c1ccccc1Nc1cnc2c(F)c(F)ccc2n1` [I.084], the logP is listed as 4.49.

As to `Cc1nc2c(F)c(F)ccc2nc1Oc1cccc(F)c1[Si](C)(C)O` [I.085], the logP is given as 3.67. In turn, `Cc1nc2c(F)c(F)ccc2nc1Oc1ccccc1[Si](C)(C)C` [I.086] gave a logP of 5.46. Same read-out and setting: next, `Cc1nc2c(F)c(F)ccc2nc1Oc1ccccc1[Si](C)(C)O` [I.087]: 3.35; `Cc1nc2c(F)c(F)ccc2nc1Oc1cccc(F)c1[Si](C)(C)C` [I.088]: 5.65; `Cc1nc2c(F)c(F)ccc2nc1Oc1c(F)cccc1[Si](C)(C)O` [I.089]: 3.62.

Still in this data set, the particulars now being: Method B: 40° C., 0.001 molar ammonium acetate solution in water and acetonitrile.
The compound `C[Si](C)(O)c1ccccc1Nc1cnc2ccccc2c1` [I.009] gave a logP of 3.20.

Still in this data set, the particulars now being: reversed-phase HPLC column (C18), Method A: 40° C., 0.1% aqueous formic acid and acetonitrile.
`C[SiH](c1ccccc1)c1c(Oc2cccc(F)c2)c(Cl)nc2ccccc12` (centres unmarked) [2-chloro-3-(3-fluorophenoxy)-4-[methyl(phenyl)silyl]quinoline] gave a chromatographic logP of 5.9. The same measure, in the same setting: next, `C[Si](C)(c1ccc(Cl)cc1)c1ccccc1Cc1cnc2ccccc2c1` [I.014, 3-{2-[(4-chlorophenyl)(dimethyl)silyl]benzyl}quinoline]: 4.74.
